Reference: US20250249025A1, “DRUG DELIVERY CARRIER UTILIZING PROPERTY OF D-ALLOSE BEING UPTAKEN BY CANCER CELL, DRUG DELIVERY METHOD, AND COMPOSITION FOR TREATING RENAL CELL CARCINOMA” (NATIONAL UNIVERSITY CORPORATION KAGAWA UNIVERSITY, priority 2019, published 2025)

Assays:
[1] = tested on: renal cell carcinoma cell line (Caki-II); assay: Cell survival assay (MTT assay), Caki-II; type: cell-based, human; details: 10 mM, 25 mM and 50 mM in MEM, 24 hours, compared with Control (p<0.05), FIG. 3
Procedure: The antitumor effect of rare sugars was analyzed using the three human renal cell carcinoma cell lines (ACHN, Caki-I, and Caki-II) used in Example 1. As the rare sugars, used were the following ten rare sugars: L-allulose, D-allulose, D-allose, L-fructose, D-mannose, L-sorbose, D-tagatose, D-galactose, D-sorbose, and L-tagatose, while as monosaccharides not belonging to rare sugars, D-glucose and D-fructose were used.
As a medium, a minimum essential medium (MEM) containing 1000 mg/l of D-glucose was used. By adjusting it to contain 10 mM, 25 mM, and 50 mM of each of the monosaccharides or rare sugars and using thus-obtained MEMs [shown by (10), (25), and (50) in the drawing], an antitumor effect of the rare sugars was evaluated.
A 5.0×10^4 cells/ml of each of cell suspensions was formed using MEM. The resulting suspension (0.1 ml/well) was distributed in a 96-well plate, followed by culturing for 24 hours. […]
The MTT assay is one of test methods for measuring survival and makes use of a color reaction of an insoluble formazan dye (blue) caused by the reduction of MTT which is a tetrazolium salt. […] The cell viability is determined by measuring this color reaction with a microplate reader.

[2] = tested on: human renal cell carcinoma cell line Caki-I; assay: Rare sugar uptake experiment, sugar content in disrupted cell suspension of Caki-I; type: cell-based
Procedure: (§1) An uptake amount of a rare sugar, which had been added to a medium, into carcinoma cells was analyzed using the cell lines of three types of cancers. As the rare sugar, four kinds, that is, D-allose, D-allulose (D-psicose), L-allulose (L-psicose), and allitol were used, while D-glucose and fructose were used as a monosaccharide which was not a rare sugar.
(§2) Cells of each of the cell lines were cultured in RPMI-1640 media and during culturing, six sugars were each added to the resulting media and cultured. After culturing, an amount of each sugar taken up into the cells was analyzed. The medium to which no sugar was added during culturing was used as a control.
(§3) Used were human bladder carcinoma cell lines (RT112, 253), and J82), human prostatic carcinoma cell lines (LNCa, Du145, and PC-3), and human renal cell carcinoma cell lines (ACHN, Caki-I, and Caki-II).
(§4) After cells were cultured in RPMI-1640 (2000 mg D-glucose/L) media, the above monosaccharides and rare sugars were added to the resulting media, respectively. Described specifically, they were following seven combinations: RPMI-1640 alone (control), RPMI-1640+D-glucose, RPMI-1640+L-allulose, RPMI-1640+D-allulose, RPMI-1640+D-fructose, RPMI-1640+D-allose, and RPMI-1640+D-allitol. The final concentration of the sugar in the medium was adjusted to 10 mM and no sugar was added in the control.
(§5) Five-ml portions of a 3.0×10^4 cells/ml cell suspension prepared using RPMI-1640 were seeded in dishes having a diameter of 6 cm (1.5×10^5 cells/dish) and cultured for 24 hours in the RPMI-1640 medium containing 2000 mg/l of D-glucose as a nutrient source. Twenty-four hours later, the media were changed to the culture solutions containing the monosaccharides and rare sugars described above in 2), respectively, followed by culturing for 48 hours.
(§6) After culturing for 48 hours, the attached human carcinoma cells were mechanically separated and collected in a Spitz tube together with the culture solution and floating cells. After the supernatant formed by centrifugation (4° C., 1200 rpm, and 5 minutes) was removed to obtain cell pellets alone, 5 ml of a phosphate buffer physiological saline (PBS) was added for the purpose of washing to obtain a cell suspension of the cell pellets. A gain, the resulting cell suspension was centrifuged at 4° C. and 1200 rpm for 5 minutes and the supernatant was removed. To the cell pellets after washing was added 1 ml of pure water to suspend them therein. Ultrasonic disruption (intensity: 40%, 30 seconds) was then performed and the monosaccharide in the disrupted cell suspension was labeled with ABEE, followed by analysis by HPLC. From the area thus obtained, the sugar content in the cells was determined using a calibration curve. With respect to the ketose, two peaks were found after labeling with ABEE so that the sugar content in the cells was determined from the calibration curves of both peaks.

[3] = tested on: human renal cell carcinoma cell line Caki-II; assay: Rare sugar uptake experiment, sugar content in disrupted cell suspension of Caki-II; type: cell-based
Procedure: as §1, §2, §3, §4, §5, §6

## O=C[C@H](O)[C@H](O)[C@H](O)[C@H](O)CO [D-allose]
[1]
  Viability: significantly reduced the viability
[2]; Caki-I, named sugar added to RPMI-1640 at 10 mM, 48 hours, HPLC after ABEE labeling
  D-glucose content in cell: 2.1 µg
[2]; human, 48 h, 10 mM
  Content in cell of the added sugar: 13.2 µg
[3]; Caki-II, named sugar added to RPMI-1640 at 10 mM, 48 hours, HPLC after ABEE labeling
  D-glucose content in cell: 3.4 µg
[3]; human, 48 h, 10 mM
  Content in cell of the added sugar: 11.2 µg
